# Reference: PubChem BioAssay AID1918995 (Molecular Pharmacology Branch, DTP, NCI, 2023)
# Several values for one entry are separate records, joined by “and”; a condition that tells them apart may be missing. Equal values may be shown once.
# Tested on: 324938-238-R-J1-PDC complex spheroid growth, % test/control
# Experiment: Anticancer human tumor 324938-238-R-J1-PDC patient-derived bladder carcinoma cell line growth inhibition [AhR]
# Settings: for viability, T/C: stronger effect = lower value
# Procedure, shortened: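 Complex tumor spheroids co-cultured with HUVEC and human MSC stroma; AhR antagonists tested in combination with standard-of-care and investigational agents. Top concentration at or near clinical Cmax (else 10 microM), half-log dilutions; growth expressed as percent test/control.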
# [1] = curve of first compound, second compound 0.1 µM
# [2] = curve of first compound, second compound 0.316 µM
# [3] = curve of first compound, second compound 1 µM
# [4] = curve of first compound, second compound 3.16 µM
# [5] = curve of first compound, second compound 10 µM
# [6] = second compound 0.1 µM, first compound 0.0316 µM
# [7] = second compound 0.1 µM, first compound 0.1 µM
# [8] = second compound 0.1 µM, first compound 0.316 µM
# [9] = second compound 0.1 µM, first compound 1 µM
# [10] = second compound 0.1 µM, first compound 3.16 µM
# [11] = second compound 0.1 µM, first compound 10 µM
# [12] = second compound 0.316 µM, first compound 0.0316 µM
# [13] = second compound 0.316 µM, first compound 0.1 µM
# [14] = second compound 0.316 µM, first compound 0.316 µM
# [15] = second compound 0.316 µM, first compound 1 µM
# [16] = second compound 0.316 µM, first compound 3.16 µM
# [17] = second compound 0.316 µM, first compound 10 µM
# [18] = second compound 1 µM, first compound 0.0316 µM
# [19] = second compound 1 µM, first compound 0.1 µM
# [20] = second compound 1 µM, first compound 0.316 µM
# [21] = second compound 1 µM, first compound 1 µM
# [22] = second compound 1 µM, first compound 3.16 µM
# [23] = second compound 1 µM, first compound 10 µM
# [24] = second compound 3.16 µM, first compound 0.0316 µM
# [25] = second compound 3.16 µM, first compound 0.1 µM
# [26] = second compound 3.16 µM, first compound 0.316 µM
# [27] = second compound 3.16 µM, first compound 1 µM
# [28] = second compound 3.16 µM, first compound 3.16 µM
# [29] = second compound 3.16 µM, first compound 10 µM
# [30] = second compound 10 µM, first compound 0.0316 µM
# [31] = second compound 10 µM, first compound 0.1 µM
# [32] = second compound 10 µM, first compound 0.316 µM
# [33] = second compound 10 µM, first compound 1 µM
# [34] = second compound 10 µM, first compound 3.16 µM
# [35] = second compound 10 µM, first compound 10 µM
# [36] = second compound 0.1 µM, first compound 0.00316 µM
# [37] = second compound 0.1 µM, first compound 0.01 µM
# [38] = second compound 0.316 µM, first compound 0.00316 µM
# [39] = second compound 0.316 µM, first compound 0.01 µM
# [40] = second compound 1 µM, first compound 0.00316 µM
# [41] = second compound 1 µM, first compound 0.01 µM
# [42] = second compound 3.16 µM, first compound 0.00316 µM
# [43] = second compound 3.16 µM, first compound 0.01 µM
# [44] = second compound 10 µM, first compound 0.00316 µM
# [45] = second compound 10 µM, first compound 0.01 µM
# 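Note: spheroids exposed to agents for seven days before viability read.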
IC50 [1] [µM],IC50 [2] [µM],IC50 [3] [µM],IC50 [4] [µM],IC50 [5] [µM],SMILES,"viability, T/C [6] [%]","viability, T/C [7] [%]","viability, T/C [8] [%]","viability, T/C [9] [%]","viability, T/C [12] [%]","viability, T/C [13] [%]","viability, T/C [14] [%]","viability, T/C [15] [%]","viability, T/C [18] [%]","viability, T/C [19] [%]","viability, T/C [20] [%]","viability, T/C [21] [%]","viability, T/C [24] [%]","viability, T/C [25] [%]","viability, T/C [26] [%]",other results
> 10,> 10,> 10,> 10,< 0.0316,CC(C)c1c(-c2ccccc2)nc2c(C#N)c[nH]n2c1=O + Cc1cncc(-c2nc(NCCc3c[nH]c4ccccc34)c3ncn(C(C)C)c3n2)c1,127,85.5,95.3,63.9,124,129,89.1,102,119,85.3,83.5,90.8,101,68.8,76.8,"viability, T/C [10]: 69.6%; viability, T/C [11]: 146%; viability, T/C [16]: 113%; viability, T/C [17]: 96.4%; viability, T/C [22]: 130%; viability, T/C [23]: 102%; viability, T/C [27]: 63.8%; viability, T/C [28]: 75.8%; viability, T/C [29]: 102%; viability, T/C [30]: 2.26%; viability, T/C [31]: 3.22%; viability, T/C [32]: 2.43%; viability, T/C [33]: 3.77%; viability, T/C [34]: 3.8%; viability, T/C [35]: 1.68%"
,,,,,CC(CO)NC(=O)c1cc(-c2ccc(Cl)cc2)nn(-c2cnn(C)c2)c1=O (stereo unspecified),,,,,,,,,,,,,,,,"viability, T/C (compound 0.316 µM): 91% [middle of 21 runs]; viability, T/C (compound 1 µM): 82.4% [middle of 21 runs]; viability, T/C (compound 10 µM): 68.8% [middle of 19 runs]; IC50 (compound alone, run of 07/12/2022): > 10 µM"
,,,,,COc1ccc([C@@H](O)c2cc(-c3ncnc4cc(N5CCOCC5)ccc34)c(F)cc2Cl)nn1,,,,,,,,,,,,,,,,"viability, T/C (compound 0.0316 µM): 109% (2×) and 99.4%; viability, T/C (compound 0.1 µM): 115% and 112% and 109%; viability, T/C (compound 0.316 µM): 59.1% and 92.5% and 94%; viability, T/C (compound 1 µM): 82.9% and 89.8% and 84%; viability, T/C (compound 3.16 µM): 59.8% and 80.3% and 73.2%; viability, T/C (compound 10 µM): 33.9% and 66% and 60.1%; IC50 (curve of compound): 4.38 µM and > 10 µM"
> 1,> 1,> 1,> 1,> 1,Nc1ncn(C2CC(O)C(CO)O2)c(=O)n1 (stereo unspecified) + CC(CO)NC(=O)c1cc(-c2ccc(Cl)cc2)nn(-c2cnn(C)c2)c1=O,93.4,73.4,81.7,72.3,97.5,82.9,80.2,64.8,82.8,72.2,68.3,61.5,64.1,60.4,64.4,"viability, T/C [36]: 98.5%; viability, T/C [37]: 97.5%; viability, T/C [38]: 98.4%; viability, T/C [39]: 102%; viability, T/C [40]: 85.9%; viability, T/C [41]: 91.3%; viability, T/C [42]: 72.4%; viability, T/C [43]: 72.5%; viability, T/C [27]: 57.6%; viability, T/C [44]: 61.4%; viability, T/C [45]: 67.9%; viability, T/C [30]: 65.8%; viability, T/C [31]: 55.9%; viability, T/C [32]: 58.3%; viability, T/C [33]: 57.8%"
> 1,> 1,> 1,> 1,< 0.00316,CC1COCCN1c1cc(-c2ccnn2C)c2ccnc(-c3ccn[nH]3)c2n1 (stereo unspecified) + Cc1cncc(-c2nc(NCCc3c[nH]c4ccccc34)c3ncn(C(C)C)c3n2)c1,112,89.6,81.2,54.9,114,81.3,81.6,70.2,137,88,72.2,53.3,77.6,70.6,67.8,"viability, T/C [36]: 87.9%; viability, T/C [37]: 123%; viability, T/C [38]: 121%; viability, T/C [39]: 150%; viability, T/C [40]: 114%; viability, T/C [41]: 122%; viability, T/C [42]: 67.2%; viability, T/C [43]: 60.2%; viability, T/C [27]: 72.2%; viability, T/C [44]: 4.75%; viability, T/C [45]: 5.66%; viability, T/C [30]: 2.57%; viability, T/C [31]: 2.16%; viability, T/C [32]: 2.35%; viability, T/C [33]: 5.11%"
> 10,> 10,> 10,9.01,7.49,COc1ccc([C@@H](O)c2cc(-c3ncnc4cc(N5CCOCC5)ccc34)c(F)cc2Cl)nn1 + Cc1ccccc1N=Nc1ccc(NC(=O)c2ccnn2C)c(C)c1,109,110,98.5,96.8,94.3,99.9,89.8,83.4,100,87.6,93,84.1,83.5,83.5,75.7,"viability, T/C [10]: 80.7%; viability, T/C [11]: 65.2%; viability, T/C [16]: 74.9%; viability, T/C [17]: 58.6%; viability, T/C [22]: 72.2%; viability, T/C [23]: 55.4%; viability, T/C [27]: 65.1%; viability, T/C [28]: 57.4%; viability, T/C [29]: 48.8%; viability, T/C [30]: 72.7%; viability, T/C [31]: 81.1%; viability, T/C [32]: 72.7%; viability, T/C [33]: 66.6%; viability, T/C [34]: 59.2%; viability, T/C [35]: 47%"
0.0813,0.065,0.0671,0.0367,0.0225,CC1COCCN1c1cc(-c2ccnn2C)c2ccnc(-c3ccn[nH]3)c2n1 (stereo unspecified) + CC(CO)NC(=O)c1cc(-c2ccc(Cl)cc2)nn(-c2cnn(C)c2)c1=O,75.2,44.6,29.7,18.6,72.7,36.6,26.4,21.6,72.8,37.7,24.1,20.4,51,31.1,26.7,"viability, T/C [36]: 97%; viability, T/C [37]: 110%; viability, T/C [38]: 88.6%; viability, T/C [39]: 102%; viability, T/C [40]: 88.7%; viability, T/C [41]: 86.6%; viability, T/C [42]: 75.9%; viability, T/C [43]: 79%; viability, T/C [27]: 18.7%; viability, T/C [44]: 62.6%; viability, T/C [45]: 63.7%; viability, T/C [30]: 43.9%; viability, T/C [31]: 29%; viability, T/C [32]: 24.8%; viability, T/C [33]: 20.1%"
